ChEMBL document CHEMBL4706488, “Design, synthesis and biological evaluation of 2-amino-4-(1,2,4-triazol)pyridine derivatives as potent EGFR inhibitors to overcome TKI-resistance” (Eur J Med Chem, 2020)
One block for each compound: values may come before it. Calls of active or inactive are those of the source. No cut-off for these calls is given here.

Legend:
NCI-H1975 [1] = experiment: cells; type: functional, cell-based; settings: Homo sapiens
cells = type: functional, tissue-based; settings: Homo sapiens, U87MG Human EGFR vIII
Description: Antiproliferative activity against human U87MG Human EGFR vIII cells overexpressing EGFRvIII mutant assessed as inhibition of cell growth by MTT assay

A-431 = experiment: cells; type: functional, cell-based; settings: Homo sapiens;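 note: antiproliferative test in A-431 cells carrying wild-type EGFR, with cell growth inhibition read by MTT assay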
Description: Antiproliferative activity against human A-431 cells harboring wild type EGFR assessed as inhibition of cell growth by MTT assay

U-87 MG = experiment: cells; type: functional, cell-based, U-87MG ATCC; settings: Homo sapiens;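 note: antiproliferative effect on U-87 MG cells carrying wild-type EGFR, growth inhibition read out by MTT assay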
Description: Antiproliferative activity against human U-87MG cells harboring wild type EGFR assessed as inhibition of cell growth by MTT assay

[2] = target: Epidermal growth factor receptor (Homo sapiens, UniProt P00533, L858R/T790M); experiment: biochemical; type: cell-based, Sf21
Chain of Epidermal growth factor receptor (Homo sapiens, UniProt P00533, L858R/T790M) (P00533 25-1210 T790M/L858R limits assumed): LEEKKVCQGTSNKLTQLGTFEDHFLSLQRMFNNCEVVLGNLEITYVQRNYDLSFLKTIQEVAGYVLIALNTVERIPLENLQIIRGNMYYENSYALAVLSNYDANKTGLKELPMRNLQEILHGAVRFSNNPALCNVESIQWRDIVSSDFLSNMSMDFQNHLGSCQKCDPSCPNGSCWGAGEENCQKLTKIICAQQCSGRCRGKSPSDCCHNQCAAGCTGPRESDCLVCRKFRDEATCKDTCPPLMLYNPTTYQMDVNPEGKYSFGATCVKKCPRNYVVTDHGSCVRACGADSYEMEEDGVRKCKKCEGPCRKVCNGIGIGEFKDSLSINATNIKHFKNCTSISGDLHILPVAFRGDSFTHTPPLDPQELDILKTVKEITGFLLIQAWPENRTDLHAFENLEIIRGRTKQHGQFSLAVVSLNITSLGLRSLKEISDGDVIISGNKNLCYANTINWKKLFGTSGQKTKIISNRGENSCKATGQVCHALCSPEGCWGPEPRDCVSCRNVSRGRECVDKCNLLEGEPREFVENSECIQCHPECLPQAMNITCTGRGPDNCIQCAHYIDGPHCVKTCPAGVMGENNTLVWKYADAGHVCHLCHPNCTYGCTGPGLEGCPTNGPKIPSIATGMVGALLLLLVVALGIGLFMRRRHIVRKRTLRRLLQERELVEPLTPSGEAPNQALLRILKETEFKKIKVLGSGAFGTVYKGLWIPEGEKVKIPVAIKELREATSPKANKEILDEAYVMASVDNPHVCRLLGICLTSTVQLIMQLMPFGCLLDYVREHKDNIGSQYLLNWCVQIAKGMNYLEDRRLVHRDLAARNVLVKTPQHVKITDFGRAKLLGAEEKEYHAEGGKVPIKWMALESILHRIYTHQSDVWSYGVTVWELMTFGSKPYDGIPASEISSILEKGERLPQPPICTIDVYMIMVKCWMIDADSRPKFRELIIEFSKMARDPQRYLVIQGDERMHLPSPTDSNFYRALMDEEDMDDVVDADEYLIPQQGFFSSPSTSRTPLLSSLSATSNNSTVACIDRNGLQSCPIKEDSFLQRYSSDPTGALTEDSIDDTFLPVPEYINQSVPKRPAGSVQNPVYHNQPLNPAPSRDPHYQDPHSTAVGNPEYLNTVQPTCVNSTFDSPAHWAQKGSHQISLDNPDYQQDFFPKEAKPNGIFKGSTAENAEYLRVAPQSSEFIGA

[3] = target: Macrophage colony-stimulating factor 1 receptor (Homo sapiens) (UniProt P07333); experiment: Inhibition of recombinant human His-tagged CSF1R (538 to 910 residues) expressed in baculovirus expression system at 1 uM by Z-lyte assay relative to control
Chain of Macrophage colony-stimulating factor 1 receptor (Homo sapiens) (P07333 whole entry, the tested form may be a part): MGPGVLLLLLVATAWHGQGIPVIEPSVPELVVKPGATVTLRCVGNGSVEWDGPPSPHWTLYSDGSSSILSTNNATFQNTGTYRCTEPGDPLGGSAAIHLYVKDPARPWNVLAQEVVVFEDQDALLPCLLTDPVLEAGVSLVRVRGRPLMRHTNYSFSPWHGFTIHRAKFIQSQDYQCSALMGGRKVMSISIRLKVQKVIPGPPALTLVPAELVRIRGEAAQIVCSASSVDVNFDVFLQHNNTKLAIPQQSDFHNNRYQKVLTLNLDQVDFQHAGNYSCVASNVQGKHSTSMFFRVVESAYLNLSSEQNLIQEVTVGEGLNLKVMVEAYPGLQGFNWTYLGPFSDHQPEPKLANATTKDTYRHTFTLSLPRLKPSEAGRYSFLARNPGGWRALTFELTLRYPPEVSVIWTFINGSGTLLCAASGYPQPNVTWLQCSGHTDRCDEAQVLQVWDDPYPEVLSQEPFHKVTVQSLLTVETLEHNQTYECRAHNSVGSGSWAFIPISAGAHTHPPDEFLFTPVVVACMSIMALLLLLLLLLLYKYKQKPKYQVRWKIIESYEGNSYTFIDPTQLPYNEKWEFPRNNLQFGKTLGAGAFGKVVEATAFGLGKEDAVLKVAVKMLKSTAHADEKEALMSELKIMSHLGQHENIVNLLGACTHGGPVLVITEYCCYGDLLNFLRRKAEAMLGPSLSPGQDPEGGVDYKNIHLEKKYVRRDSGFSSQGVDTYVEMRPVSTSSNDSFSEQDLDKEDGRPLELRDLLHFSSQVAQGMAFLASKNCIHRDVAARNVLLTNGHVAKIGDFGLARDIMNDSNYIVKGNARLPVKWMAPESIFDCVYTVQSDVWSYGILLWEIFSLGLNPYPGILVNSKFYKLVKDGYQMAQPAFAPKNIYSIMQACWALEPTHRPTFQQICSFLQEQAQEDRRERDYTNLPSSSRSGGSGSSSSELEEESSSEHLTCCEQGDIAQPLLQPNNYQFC

[4] = target: Tyrosine-protein kinase Lck (Homo sapiens) (UniProt P06239); experiment: Inhibition of recombinant human LCK at 1 uM by Z-lyte assay relative to control
Chain of Tyrosine-protein kinase Lck (Homo sapiens) (P06239 2-509 limits assumed): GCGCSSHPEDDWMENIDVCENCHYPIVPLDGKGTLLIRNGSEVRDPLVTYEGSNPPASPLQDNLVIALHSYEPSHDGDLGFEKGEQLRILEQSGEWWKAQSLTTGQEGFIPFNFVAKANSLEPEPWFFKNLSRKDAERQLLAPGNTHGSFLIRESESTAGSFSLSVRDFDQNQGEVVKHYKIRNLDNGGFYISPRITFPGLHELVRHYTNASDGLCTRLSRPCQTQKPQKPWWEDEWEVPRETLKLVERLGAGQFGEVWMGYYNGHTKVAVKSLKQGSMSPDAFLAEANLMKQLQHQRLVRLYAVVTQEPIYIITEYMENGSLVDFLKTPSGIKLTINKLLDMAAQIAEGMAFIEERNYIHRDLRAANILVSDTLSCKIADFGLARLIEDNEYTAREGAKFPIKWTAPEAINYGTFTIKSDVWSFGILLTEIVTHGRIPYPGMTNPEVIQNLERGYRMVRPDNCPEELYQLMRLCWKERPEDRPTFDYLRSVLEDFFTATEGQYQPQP

[5] = target: Aurora kinase B (Homo sapiens) (UniProt Q96GD4); experiment: Inhibition of recombinant full length human His-tagged AURKB expressed in baculovirus expression system at 1 uM by Z-lyte assay relative to control
Chain of Aurora kinase B (Homo sapiens) (Q96GD4 whole entry): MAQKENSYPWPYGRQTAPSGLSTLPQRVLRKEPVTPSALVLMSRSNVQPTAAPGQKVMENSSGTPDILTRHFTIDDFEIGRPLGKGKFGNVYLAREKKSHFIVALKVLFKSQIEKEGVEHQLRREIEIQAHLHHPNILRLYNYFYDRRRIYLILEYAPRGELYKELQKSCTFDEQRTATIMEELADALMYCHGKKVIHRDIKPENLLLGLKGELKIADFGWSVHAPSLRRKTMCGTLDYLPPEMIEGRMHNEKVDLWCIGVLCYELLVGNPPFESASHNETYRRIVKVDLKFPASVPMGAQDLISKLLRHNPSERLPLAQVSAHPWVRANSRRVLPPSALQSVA

U87MG Human EGFR vIII = experiment: Induction of apoptosis in human U87MG Human EGFR vIII cells by annexinV-FITC/propidium iodide staining based flow cytometry analysis; type: functional, cell-based
NCI-H1975 [6] = experiment: Induction of apoptosis in human NCI-H1975 cells assessed as early apoptotic cells at 10 uM by annexinV-FITC/propidium iodide staining based flow cytometry analysis (reference value: 0.53 %); type: functional
NCI-H1975 [7] = experiment: Induction of apoptosis in human NCI-H1975 cells assessed as necrotic cells at 20 uM by annexinV-FITC/propidium iodide staining based flow cytometry analysis (reference value: 0.44 %); type: functional
NCI-H1975 [8] = experiment: Induction of apoptosis in human NCI-H1975 cells assessed as late apoptotic cells at 10 uM by annexinV-FITC/propidium iodide staining based flow cytometry analysis (reference value: 0.42 %); type: functional
NCI-H1975 [9] = experiment: Induction of apoptosis in human NCI-H1975 cells assessed as late apoptotic cells at 5 uM by annexinV-FITC/propidium iodide staining based flow cytometry analysis (reference value: 0.42 %); type: functional
NCI-H1975 [10] = experiment: Induction of apoptosis in human NCI-H1975 cells assessed as live cells at 10 uM by annexinV-FITC/propidium iodide staining based flow cytometry analysis (reference value: 98.6 %); type: functional
[11] = target: Mitogen-activated protein kinase 9 (Homo sapiens) (UniProt P45984); experiment: Inhibition of recombinant full length human His-tagged MAPK9 expressed in baculovirus expression system at 1 uM by Z-lyte assay relative to control
[12] = target: Receptor tyrosine-protein kinase erbB-4 (Homo sapiens) (UniProt Q15303); experiment: Inhibition of N-terminal GST-tagged human recombinant HER4 (708 to 993 residues) expressed in baculovirus expression system at 1 uM by Z-lyte assay relative to control
[13] = target: Receptor tyrosine-protein kinase erbB-2 (Homo sapiens) (UniProt P04626); experiment: Inhibition of human recombinant His-tagged HER2 (676 to 1255 residues) expressed in baculovirus expression system at 1 uM by Z-lyte assay relative to control
NCI-H1975 [14] = experiment: Induction of apoptosis in human NCI-H1975 cells assessed as live cells at 20 uM by annexinV-FITC/propidium iodide staining based flow cytometry analysis (reference value: 98.6 %); type: functional
NCI-H1975 [15] = experiment: Induction of apoptosis in human NCI-H1975 cells assessed as live cells at 5 uM by annexinV-FITC/propidium iodide staining based flow cytometry analysis (reference value: 98.6 %); type: functional
NCI-H1975 [16] = experiment: Induction of apoptosis in human NCI-H1975 cells assessed as early apoptotic cells at 5 uM by annexinV-FITC/propidium iodide staining based flow cytometry analysis (reference value: 0.53 %); type: functional
[17] = target: BDNF/NT-3 growth factors receptor (Homo sapiens) (UniProt Q16620); experiment: Inhibition of recombinant human His-tagged NTRK2 (526 to 638 residues) expressed in baculovirus expression system at 1 uM by Z-lyte assay relative to control
[18] = target: Serine/threonine-protein kinase B-raf (Homo sapiens) (UniProt P15056); experiment: Inhibition of recombinant full length human GST-tagged BRAF expressed in baculovirus expression system at 1 uM by Z-lyte assay relative to control
[19] = target: Epidermal growth factor receptor (Homo sapiens, UniProt P00533); experiment: biochemical; type: cell-based, Sf21
Chain of Epidermal growth factor receptor (Homo sapiens, UniProt P00533) (P00533 whole entry): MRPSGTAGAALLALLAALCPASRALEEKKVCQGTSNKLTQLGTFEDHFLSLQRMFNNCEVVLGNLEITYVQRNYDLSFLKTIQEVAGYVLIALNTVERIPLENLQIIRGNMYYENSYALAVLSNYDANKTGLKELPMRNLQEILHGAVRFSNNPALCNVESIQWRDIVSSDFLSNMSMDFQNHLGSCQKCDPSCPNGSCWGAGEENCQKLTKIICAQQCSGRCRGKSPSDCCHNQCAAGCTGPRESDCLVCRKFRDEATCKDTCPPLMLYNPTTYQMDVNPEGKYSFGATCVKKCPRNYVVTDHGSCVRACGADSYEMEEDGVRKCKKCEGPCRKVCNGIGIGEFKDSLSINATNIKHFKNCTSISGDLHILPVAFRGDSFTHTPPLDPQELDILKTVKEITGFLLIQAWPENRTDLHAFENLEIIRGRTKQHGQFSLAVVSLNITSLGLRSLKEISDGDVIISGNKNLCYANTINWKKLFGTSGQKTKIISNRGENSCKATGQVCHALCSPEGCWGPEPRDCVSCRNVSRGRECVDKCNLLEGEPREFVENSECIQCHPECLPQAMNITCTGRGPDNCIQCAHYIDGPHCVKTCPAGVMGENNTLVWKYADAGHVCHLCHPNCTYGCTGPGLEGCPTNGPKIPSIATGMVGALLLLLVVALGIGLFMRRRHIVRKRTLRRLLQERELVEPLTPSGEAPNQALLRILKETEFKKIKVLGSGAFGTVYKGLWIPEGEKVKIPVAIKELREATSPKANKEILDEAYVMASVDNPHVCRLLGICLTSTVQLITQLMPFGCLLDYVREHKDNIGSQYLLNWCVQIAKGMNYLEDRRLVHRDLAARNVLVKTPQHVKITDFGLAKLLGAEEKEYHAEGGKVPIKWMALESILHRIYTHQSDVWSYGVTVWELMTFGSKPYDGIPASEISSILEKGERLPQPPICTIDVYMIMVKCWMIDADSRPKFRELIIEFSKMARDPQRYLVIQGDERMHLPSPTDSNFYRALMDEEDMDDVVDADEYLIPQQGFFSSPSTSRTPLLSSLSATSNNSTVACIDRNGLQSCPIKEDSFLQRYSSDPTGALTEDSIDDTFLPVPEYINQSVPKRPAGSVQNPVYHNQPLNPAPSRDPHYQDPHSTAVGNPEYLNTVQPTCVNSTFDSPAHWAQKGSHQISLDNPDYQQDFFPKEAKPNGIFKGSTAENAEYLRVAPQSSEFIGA
Description: Inhibition of wild type N-terminal GST-tagged human EGFR cytoplasmic domain (669 to 1210 residues) expressed in baculovirus infected Sf21 cells using biotin-labeled TK substrate preincubated for 30 mins followed by substrate and ATP addition at Km concentration and further incubated for 20 mins by HTRF assay

NCI-H1975 [20] = experiment: Induction of apoptosis in human NCI-H1975 cells assessed as necrotic cells at 5 uM by annexinV-FITC/propidium iodide staining based flow cytometry analysis (reference value: 0.44 %); type: functional
[21] = target: Tyrosine-protein kinase JAK2 (Homo sapiens) (UniProt O60674); experiment: Inhibition of recombinant human GST-tagged JAK2 (809 to 1162 residues) expressed in baculovirus expression system at 1 uM by Z-lyte assay relative to control
[22] = target: Tyrosine-protein kinase Fyn (Homo sapiens) (UniProt P06241); experiment: Inhibition of recombinant full length human C-terminal His-tagged FYN expressed in baculovirus expression system at 1 uM by Z-lyte assay relative to control
[23] = target: Tyrosine-protein kinase BTK (Homo sapiens) (UniProt Q06187); experiment: Inhibition of recombinant full length human His-tagged BTK expressed in baculovirus expression system at 1 uM by Z-lyte assay relative to control
Chain of Tyrosine-protein kinase BTK (Homo sapiens) (Q06187 whole entry): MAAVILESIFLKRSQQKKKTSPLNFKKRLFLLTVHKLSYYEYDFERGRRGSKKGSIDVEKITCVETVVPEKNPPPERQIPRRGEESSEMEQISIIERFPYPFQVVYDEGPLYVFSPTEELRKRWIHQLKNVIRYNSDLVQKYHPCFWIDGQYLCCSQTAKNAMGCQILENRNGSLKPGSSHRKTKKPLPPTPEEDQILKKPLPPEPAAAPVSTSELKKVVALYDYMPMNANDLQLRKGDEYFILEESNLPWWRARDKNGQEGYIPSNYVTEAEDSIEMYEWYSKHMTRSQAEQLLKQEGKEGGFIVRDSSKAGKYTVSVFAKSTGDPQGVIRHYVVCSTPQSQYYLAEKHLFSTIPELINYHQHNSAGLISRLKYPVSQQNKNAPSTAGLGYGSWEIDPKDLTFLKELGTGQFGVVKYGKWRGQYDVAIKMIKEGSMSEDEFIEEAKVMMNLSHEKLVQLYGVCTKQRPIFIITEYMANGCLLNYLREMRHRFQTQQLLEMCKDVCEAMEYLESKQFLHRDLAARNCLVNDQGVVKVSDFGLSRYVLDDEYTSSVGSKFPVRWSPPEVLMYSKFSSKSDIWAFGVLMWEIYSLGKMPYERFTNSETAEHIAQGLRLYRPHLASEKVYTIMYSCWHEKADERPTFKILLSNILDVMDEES

NCI-H1975 [24] = experiment: Induction of apoptosis in human NCI-H1975 cells assessed as early apoptotic cells at 20 uM by annexinV-FITC/propidium iodide staining based flow cytometry analysis (reference value: 0.53 %); type: functional
NCI-H1975 [25] = experiment: Induction of apoptosis in human NCI-H1975 cells assessed as late apoptotic cells at 20 uM by annexinV-FITC/propidium iodide staining based flow cytometry analysis (reference value: 0.42 %); type: functional
[26] = target: Vascular endothelial growth factor receptor 2 (Homo sapiens) (UniProt P35968); experiment: Inhibition of recombinant human His-tagged VEGFR2 (789 to 1356 residues) expressed in baculovirus expression system at 1 uM by Z-lyte assay relative to control
NCI-H1975 [27] = experiment: Induction of apoptosis in human NCI-H1975 cells assessed as necrotic cells at 10 uM by annexinV-FITC/propidium iodide staining based flow cytometry analysis (reference value: 0.44 %); type: functional
[28] = target: ALK tyrosine kinase receptor (Homo sapiens) (UniProt Q9UM73); experiment: Inhibition of human recombinant GST-tagged ALK cytoplasmic domain (1058-1620 residues) expressed in baculovirus expression system at 1 uM by Z-lyte assay relative to control
[29] = target: Insulin-like growth factor 1 receptor (Homo sapiens) (UniProt P08069); experiment: Inhibition of recombinant human C-terminal His-tagged IGF1R (960 to 1397 residues) expressed in baculovirus expression system at 1 uM by Z-lyte assay relative to control
[30] = target: Hepatocyte growth factor receptor (Homo sapiens) (UniProt P08581); experiment: Inhibition of recombinant human N-terminal His-tagged cMET (956 to 1390 residues) expressed in baculovirus expression system at 1 uM by Z-lyte assay relative to control
[31] = Potency index, ratio of lazertinib IC50 to test compound IC50 for antiproliferative activity against human U87MG Human EGFR vIII cells overexpressing EGFRvIII mutant assessed as inhibition of cell proliferation by MTT assay; type: functional
[32] = Potency index, ratio of osimertinib IC50 to test compound IC50 for antiproliferative activity against human U87MG Human EGFR vIII cells overexpressing EGFRvIII mutant assessed as inhibition of cell proliferation by MTT assay; type: functional

IC50 (NCI-H1975 [1]): 4.5 µM | IC50 (cells): 25.6 µM | IC50 (A-431): 9.3 µM | IC50 (U-87 MG): 3.6 µM
SMILES: C=CC(=O)Nc1cc(Nc2cc(-n3c(SC)nnc3-c3ccc(F)cc3)ccn2)c(OC)cc1N1CCC(N2CCN(C)CC2)CC1

IC50 (NCI-H1975 [1]): 53.5 µM | IC50 (cells): 35.7 µM | IC50 (A-431): 52.6 µM | IC50 (U-87 MG): 68.1 µM
SMILES: C=CC(=O)Nc1ccc(OC)c(Nc2cc(-n3c(C)nnc3-c3ccc(F)cc3)ccn2)c1

SMILES: C=CC(=O)Nc1cc(Nc2cc(-n3c(SC)nnc3-c3ccc(F)cc3)ccn2)c(OC)cc1N1CCC(N2CCOCC2)CC1
IC50 (NCI-H1975 [1]): 16.7 µM | IC50 (cells): 20.2 µM | IC50 (A-431): 7 µM | IC50 (U-87 MG): 15.2 µM | IC50 [2]: 0.112 µM

SMILES: C=CC(=O)Nc1cc(Nc2cc(-n3c(SC)nnc3-c3ccc(F)cc3)ccn2)c(OC)cc1N(C)CCN(C)C
inhibition [3]: 12% | inhibition [4]: 11% | inhibition [5]: 13% | Activity (U87MG Human EGFR vIII): inactive | IC50 (NCI-H1975 [1]): 5.4 µM | Activity (NCI-H1975 [6]): 1.69% | Activity (NCI-H1975 [7]): 3.99% | Activity (NCI-H1975 [8]): 1.87% | Activity (NCI-H1975 [9]): 1.1% | Activity (NCI-H1975 [10]): 95.5% | inhibition [11]: 7% | IC50 (cells): 18 µM | inhibition [12]: 76% | inhibition [13]: 16% | IC50 (A-431): 4 µM | Activity (NCI-H1975 [14]): 84% | IC50 (U-87 MG): 2.8 µM | Activity (NCI-H1975 [15]): 97.2% | Activity (NCI-H1975 [16]): 1.28% | inhibition [17]: 17% | inhibition [18]: -7% | IC50 [19]: 0.0893 µM | Activity (NCI-H1975 [20]): 0.44% | inhibition [21]: 12% | inhibition [22]: 5% | inhibition [23]: 4% | Activity (NCI-H1975 [24]): 4.83% | IC50 [2]: 0.0431 µM | Activity (NCI-H1975 [25]): 7.14% | inhibition [26]: 18% | Activity (NCI-H1975 [27]): 0.91% | inhibition [28]: 10% | inhibition [29]: 10% | inhibition [30]: 9%

SMILES: C=CC(=O)Nc1cc(Nc2nccc(-n3cc(CN(C)C)c(-c4ccccc4)n3)n2)c(OC)cc1N1CCOCC1 [LAZERTINIB]
IC50 (NCI-H1975 [1]): < 1 µM | IC50 (cells): > 100 µM | IC50 (A-431): 3.6 µM | IC50 (U-87 MG): 33.2 µM | IC50 [19]: 0.0346 µM | IC50 [2]: 0.0027 µM

IC50 (NCI-H1975 [1]): 13.2 µM | IC50 (cells): 39.7 µM | IC50 (A-431): 11.4 µM | IC50 (U-87 MG): 8.42 µM
SMILES: C=CC(=O)Nc1cc(Nc2cc(-n3c(SC)nnc3-c3ccc(F)cc3)ccn2)c(OC)cc1N1CCC(N(C)C)CC1

SMILES: C=CC(=O)Nc1ccc(OC)c(Nc2cc(-n3c(SC)nnc3-c3ccc(F)cc3)ccn2)c1
IC50 (NCI-H1975 [1]): 7.8 µM | IC50 (cells): 26.3 µM | IC50 (A-431): 3.4 µM | IC50 (U-87 MG): 4.5 µM | IC50 [19]: 0.179 µM | IC50 [2]: 0.147 µM

SMILES: C=CC(=O)Nc1cc(Nc2cc(-n3c(SC)nnc3-c3ccc(F)cc3)ccn2)ccc1N(C)CCN(C)C
Ratio IC50 [31]: 25 | Activity (U87MG Human EGFR vIII): inactive | IC50 (NCI-H1975 [1]): 5.3 µM | Activity (NCI-H1975 [6]): 2.63% | Activity (NCI-H1975 [7]): 10.7% | Activity (NCI-H1975 [8]): 3.86% | Activity (NCI-H1975 [9]): 2.77% | Activity (NCI-H1975 [10]): 91.4% | Ratio IC50 [32]: 3 | IC50 (cells): 4.1 µM | IC50 (A-431): 6 µM | Activity (NCI-H1975 [14]): 32.3% | IC50 (U-87 MG): 2.4 µM | Activity (NCI-H1975 [15]): 93.8% | Activity (NCI-H1975 [16]): 2.52% | IC50 [19]: 0.156 µM | Activity (NCI-H1975 [20]): 0.92% | Activity (NCI-H1975 [24]): 18% | IC50 [2]: 0.213 µM | Activity (NCI-H1975 [25]): 39% | Activity (NCI-H1975 [27]): 2.14%

IC50 (NCI-H1975 [1]): > 100 µM | IC50 (cells): > 100 µM | IC50 (A-431): 73.9 µM | IC50 (U-87 MG): 53.1 µM
SMILES: CCC(=O)Nc1cc(Nc2cc(-n3c(SC)nnc3-c3ccc(F)cc3)ccn2)c(OC)cc1N(C)CCN(C)C
